# Molecular target: HIV protease (Human immunodeficiency virus type 1 group M subtype B, UniProt P04585)
# Assay: biochemical
row,SMILES,Ki [nM]
1,"COCCOC(=O)N[C@@H](Cc1cccc2ccccc12)C(=O)NCCC[C@@H](CO)N(CC(C)C)S(=O)(=O)c1ccc(N)cc1 [Example 17, (1S,4S)-(1-{4-[(4-Amino-benzenesulfonyl)-isobutyl-amino]-5-hydroxy-pentylcarbamoyl}-2-naphthalen-1-yl-ethyl)-carbamic Acid 2-Methoxy-ethyl Ester]",3.7
2,"Cc1ncccc1C(=O)N[C@H](C(=O)NCCCC[C@@H](CO)N(CC(C)C)S(=O)(=O)c1ccc(N)cc1)C(c1ccccc1)c1ccccc1 [Example 111, (1S,5S)-N-(1-{5-[(4-Amino-benzenesulfonyl)-isobutyl-amino]-6-hydroxy-hexylcarbamoyl}-2,2-diphenyl-ethyl)-2-methyl-nicotinamide]",< 3.8
3,"CC(C)CN[C@@H](Cc1cccc2ccccc12)C(=O)NCCC[C@@H](CO)N(CC(C)C)S(=O)(=O)c1ccc(N)cc1 [Example 25, (2S,4S)-N-{4-[(4-Amino-benzenesulfonyl)-isobutyl-amino]-5-hydroxy-pentyl}-2-isobutylamino-3-naphthalen-1-yl-propionamide]",3.7
4,"CC(C)CN([C@H](CO)CCCCNC(=O)[C@@H](NC(=O)N(C)C)C(c1ccccc1)c1ccccc1)S(=O)(=O)c1ccc(N)cc1 [Example 94, (2S,5S)-N-{5-[(4-Amino-benzenesulfonyl)-isobutyl-amino]-6-hydroxy-hexyl}-2-(3,3-dimethyl-ureido)-3,3-diphenyl-propionamide]",< 3.8
5,"COC(=O)N[C@@H](Cc1cccc2ccccc12)C(=O)NCCCC[C@@H](CO)N(CC(C)C)S(=O)(=O)c1ccc(N)cc1 [Example 28, (1S,5S)-(1-{5-[(4-Amino-benzenesulfonyl)-isobutyl-amino]-6-hydroxy-hexylcarbamoyl}-2-naphthalen-1-yl-ethyl)-carbamic Acid Methyl Ester]",1.2
6,"COc1cc(C(=O)N[C@H](C(=O)NCCCC[C@@H](CO)N(CC(C)C)S(=O)(=O)c2ccc(N)cc2)C(c2ccccc2)c2ccccc2)ccc1O [Example 106, (1S,5S)-N-(1-{5-[(4-Amino-benzenesulfonyl)-isobutyl-amino]-6-hydroxy-hexylcarbamoyl}-2,2-diphenyl-ethyl)-4-hydroxy-3-methoxy-benzamide]",< 3.8
7,"COC(=O)N[C@@H](Cc1ccccc1-c1cccc(F)c1)C(=O)NCCCC[C@@H](CO)N(CC(C)C)S(=O)(=O)c1ccc(N)c(Cl)c1 [Example 57, (1S,5S)-[1-{5-[(4-Amino-3-chloro-benzenesulfonyl)-isobutyl-amino]-6-hydroxy-hexylcarbamoyl}-2-(3′-fluoro-biphenyl-2-yl)-ethyl]-carbamic Acid Methyl Ester]",1.7
8,"CC(C)CN([C@H](CO)CCCCNC(=O)[C@@H](NC(=O)c1cccc(O)c1)C(c1ccccc1)c1ccccc1)S(=O)(=O)c1ccc(N)cc1 [Example 105, (1S,5S)-N-(1-{5-[(4-Amino-benzenesulfonyl)-isobutyl-amino]-6-hydroxy-hexylcarbamoyl}-2,2-diphenyl-ethyl)-3-hydroxy-benzamide]",< 3.8
9,"CC(C)CN([C@H](CO)CCCCNC(=O)[C@@H](N)Cc1ccc2ccccc2c1)S(=O)(=O)c1ccc(N)cc1 [Example 49, (2S,5S)-2-Amino-N-{5-[(4-amino-benzenesulfonyl)-isobutyl-amino]-6-hydroxy-hexyl}-3-naphthalen-2-yl-propionamide]",1.3
10,"CCCN[C@@H](Cc1cccc2ccccc12)C(=O)NCCC[C@@H](CO)N(CC(C)C)S(=O)(=O)c1ccc(N)cc1 [Example 22, (2S,4S)-N-{4-[(4-Amino-benzenesulfonyl)-isobutyl-amino]-5-hydroxy-pentyl}-3-naphthalen-1-yl-2-propylamino-propionamide]",2.5
11,"CC(C)CN([C@H](CO)CCCCNC(=O)[C@@H](NC(=O)Cc1cccnc1)C(c1ccccc1)c1ccccc1)S(=O)(=O)c1ccc(N)cc1 [Example 99, (2S,5S)-N-{5-[(4-Amino-benzenesulfonyl)-isobutyl-amino]-6-hydroxy-hexyl}-3,3-diphenyl-2-(2-pyridin-3-yl-acetylamino)-propionamide]",< 3.8
12,"COC(=O)N[C@@H](Cc1ccc2ccccc2c1)C(=O)NCCCC[C@@H](CO)N(CC(C)C)S(=O)(=O)c1ccc(N)cc1 [Example 29, (1S,5S)-(1-{5-[(4-Amino-benzenesulfonyl)-isobutyl-amino]-6-hydroxy-hexylcarbamoyl}-2-naphthalen-2-yl-ethyl)-carbamic Acid Methyl Ester]",1.2
13,"CC(C)CN([C@H](CO)CCCNC(=O)[C@@H](N)Cc1cccc2ccccc12)S(=O)(=O)c1ccc(N)cc1 [Example 8, (2S,4S)-2-Amino-N-{4-[(4-amino-benzenesulfonyl)-isobutyl-amino]-5-hydroxy-pentyl}-3-naphthalen-1-yl-propionamide]",1.6
14,"CC(C)CN([C@H](CO)CCCCNC(=O)[C@@H](NC(=O)c1ncccc1O)C(c1ccccc1)c1ccccc1)S(=O)(=O)c1ccc(N)cc1 [Example 108, (1S,5S)-3-Hydroxy-pyridine-2-carboxylic Acid-N-(1-{5-[(4-amino-benzenesulfonyl)-isobutyl-amino]-6-hydroxy-hexylcarbamoyl}-2,2-diphenyl-ethyl)-amide]",< 3.8
15,"CCOC(=O)N[C@@H](Cc1cccc2ccccc12)C(=O)NCCC[C@@H](CO)N(CC(C)C)S(=O)(=O)c1ccc(N)cc1 [Example 18, (1S,4S)-(1-{4-[(4-Amino-benzenesulfonyl)-isobutyl-amino]-5-hydroxy-pentylcarbamoyl}-2-naphthalen-1-yl-ethyl)-carbamic Acid Ethyl Ester]",3.9
16,"CC(C)CN([C@H](CO)CCCCNC(=O)[C@H](Cc1ccc2ccccc2c1)NC(=O)N1CCCC1)S(=O)(=O)c1ccc(F)c(N)c1 [Example 115, (1S,5S)Pyrrolidine-1-carboxylic Acid (1-{5-[(3-Amino-4-fluoro-benzenesulfonyl)-isobutyl-amino]-6-hydroxy-hexylcarbamoyl}-2-naphthalen-2-yl-ethyl)-amide]",< 3.8
17,"CC(C)CN([C@H](CO)CCCCNC(=O)[C@H](Cc1ccc2ccccc2c1)NC(=O)C1CCCCC1)S(=O)(=O)c1ccc(N)cc1 [Example 42, (1S,5S)-Cyclohexanecarboxylic Acid (1-{5-[(4-Amino-benzenesulfonyl)-isobutyl-amino]-6-hydroxy-hexylcarbamoyl}-2-naphthalen-2-yl-ethyl)-amide]",1.2
18,"CC(=O)OCCN[C@@H](Cc1cccc2ccccc12)C(=O)NCCC[C@@H](CO)N(CC(C)C)S(=O)(=O)c1ccc(N)cc1 [Example 21, (1S,4S)-Acetic Acid 2-(1-{4-[(4-Amino-benzenesulfonyl)-isobutyl-amino]-5-hydroxy-pentylcarbamoyl}-2-naphthalen-1-yl-ethylamino)-ethyl Ester]",3.9
19,"CC(C)CN([C@H](CO)CCCCNC(=O)[C@@H](NC(=O)OCc1ccccn1)C(c1ccccc1)c1ccccc1)S(=O)(=O)c1ccc(N)cc1 [Example 95, (1S,5S)-(1-{5-[(4-Amino-benzenesulfonyl)-isobutyl-amino]-6-hydroxy-hexylcarbamoyl}-2,2-diphenyl-ethyl)-carbamic Acid Pyridin-2-ylmethyl Ester]",< 3.8
